Series [1] addresses P-glycoprotein (MDR1-transfected MDCK cell line) (Homo sapiens (Human), UniProt P08183). Briefly: Pgp Liability MDR1 Er. The format is in vitro ADME. The following applies: MDR1-transfected MDCK cell line; ratio of permeability, Papp BA/AB. The source says: MDR1 Efflux Ratio (MDR Er) from MDR1-transfected MDCK line cell line represents the ratio of permeability, Papp BA/AB. Procedure utilized from (Feng, B.; Mills, J. B.; Davidson, R. E.; Mireles, R. J.; Janiszewski, J. S.; Troutman, M. D.; de Morais, S. M. In vitro P-glycoprotein assays to predict the in vivo interactions of P-glycoprotein with drugs in the central nervous system. Drug Metab. Dispos. 2008, 36, 268-275.

Series [2] can be described thus: pKa. The format is physicochemical.
A short description of series [3]: Aniline structural alert.
In series [4] the target is BACE1 (Homo sapiens (Human), UniProt P56817). The series is described as follows: BACE1 Cell-Free Assay (fluorescence polarization). The format is biochemical.
Series [5] addresses CYP2D6 (Homo sapiens (Human), UniProt P10635). Briefly: General Multi-Point Cocktail DDI IC50 Assay. How it is done:
General Multi-Point Cocktail DDI IC50 Assay Conditions:
The incubation volume is 0.1 mL, utilizing a 384-well plate format. […] Substrate concentrations are near Km values that had been previously determined and incubation times are selected based on determinations of reaction velocity linearity. […] Samples are directly injected on an HPLC/MS/MS system. A Biomek FX workstation is used for liquid handling and sample incubation.

The nature of series [6]: HLM Clint (clearance in human liver microsomes). In kind it is in vitro ADME. Background: Microsomes from liver hold many membrane-bound enzymes, among them those of drug oxidation.
In series [7] the target is hERG channel (Homo sapiens (Human), UniProt Q12809). Briefly: hERG Patch Clamp Assay. The following applies: CHO cell transfected with hERG gene, automated Qpatch HT system. In kind it is cell-based. Here is the method:
After a ˜30 minute recovery period, experiments were initiated.
hERG Potassium Channel Current Recordings and Data Analysis:
The intracellular recording saline was composed of (in […]): 70 KF, 60 KCl, 15 NaCl, 5 EGTA, 5 HEPES, and adjusted to pH 7.2±0.1 with KOH. […] Test pulses were delivered at a frequency of 0.25 Hz. Up to 4 different concentrations were studied on each cell, each exposure lasting 5 minutes or until steady-state effects were observed. […] Using Sophion Qpatch Assay Software, the amplitude of the peak outward hERG current upon repolarizing ramp was measured. Current amplitude was determined by taking the average of the last 5 current peaks under each treatment condition. […] When possible, a concentration-response curve was plotted and the data were fitted using Qpatch software to determine an IC50. The P<0.05 was considered statistically significant.
In general terms: The hERG channel carries a current that helps repolarise heart muscle cells.

For series [8], the system named is sAPPβ, the primary cleavage product of BACE1, in H4 human neuroglioma cells over-expressing the wild-type human APP695. The series is described as follows: sAPPβ Whole-Cell Assay (WCA). Conditions: 18 h. In kind it is cell-based. How it is done: sAPPβ Whole-Cell Assay (WCA):
sAPPβ, the primary cleavage product of BACE1, was determined in H4 human neuroglioma cells over-expressing the wild-type human APP695. […] The colorimetric reaction was read by an EnVision (PerkinElmer) plate-reader.

Setting [9] is: Measurement determined at Analyza.
The mark [10] stands for this setting: Table 4, read-out: BACE1 Cell Free IC50.
Setting [11] is: geometric mean of 2-4 determinations unless otherwise indicated (b: ≧5; c: single determination), read-out: BACE1 Cell-free Assay IC50.

As a reminder, the pKa is the pH at which an ionisable group is half protonated. Usually IC50 stands for the midpoint of a concentration-inhibition curve.

Like-named read-outs stand apart in the source and are kept apart here.

Chain of P-glycoprotein (MDR1-transfected MDCK cell line) (P08183 whole entry): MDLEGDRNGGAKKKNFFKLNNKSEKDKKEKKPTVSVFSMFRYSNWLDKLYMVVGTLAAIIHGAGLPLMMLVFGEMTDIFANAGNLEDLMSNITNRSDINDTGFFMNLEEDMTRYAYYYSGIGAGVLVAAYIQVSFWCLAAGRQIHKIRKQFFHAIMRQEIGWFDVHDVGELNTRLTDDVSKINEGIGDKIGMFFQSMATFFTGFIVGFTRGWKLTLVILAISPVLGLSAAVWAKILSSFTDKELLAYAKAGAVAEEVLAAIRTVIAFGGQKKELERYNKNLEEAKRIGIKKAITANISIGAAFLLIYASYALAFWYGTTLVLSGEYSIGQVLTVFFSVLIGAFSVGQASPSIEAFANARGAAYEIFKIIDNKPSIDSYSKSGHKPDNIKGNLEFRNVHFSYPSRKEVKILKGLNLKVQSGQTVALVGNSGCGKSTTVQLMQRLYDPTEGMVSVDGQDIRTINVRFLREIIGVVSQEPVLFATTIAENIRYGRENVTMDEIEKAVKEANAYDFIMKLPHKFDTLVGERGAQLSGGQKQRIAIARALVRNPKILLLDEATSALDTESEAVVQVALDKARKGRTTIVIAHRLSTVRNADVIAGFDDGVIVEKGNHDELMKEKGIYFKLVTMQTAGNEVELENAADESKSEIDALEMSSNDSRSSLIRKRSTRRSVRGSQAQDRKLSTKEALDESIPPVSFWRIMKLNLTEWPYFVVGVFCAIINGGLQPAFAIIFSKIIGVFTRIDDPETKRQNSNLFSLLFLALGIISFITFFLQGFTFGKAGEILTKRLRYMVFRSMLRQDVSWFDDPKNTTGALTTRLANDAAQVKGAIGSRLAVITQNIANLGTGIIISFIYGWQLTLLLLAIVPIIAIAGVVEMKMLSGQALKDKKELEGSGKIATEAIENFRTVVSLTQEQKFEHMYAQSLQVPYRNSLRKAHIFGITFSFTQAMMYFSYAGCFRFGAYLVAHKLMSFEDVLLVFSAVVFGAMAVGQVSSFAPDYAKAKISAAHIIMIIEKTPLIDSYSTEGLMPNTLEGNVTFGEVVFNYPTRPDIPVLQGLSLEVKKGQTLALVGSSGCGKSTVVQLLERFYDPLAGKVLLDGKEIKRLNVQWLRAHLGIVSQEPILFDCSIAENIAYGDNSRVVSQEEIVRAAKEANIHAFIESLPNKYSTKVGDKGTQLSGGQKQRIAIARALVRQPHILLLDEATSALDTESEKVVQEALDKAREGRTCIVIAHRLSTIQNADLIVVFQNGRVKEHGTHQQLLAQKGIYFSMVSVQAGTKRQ
Chain of BACE1 (P56817 46-457): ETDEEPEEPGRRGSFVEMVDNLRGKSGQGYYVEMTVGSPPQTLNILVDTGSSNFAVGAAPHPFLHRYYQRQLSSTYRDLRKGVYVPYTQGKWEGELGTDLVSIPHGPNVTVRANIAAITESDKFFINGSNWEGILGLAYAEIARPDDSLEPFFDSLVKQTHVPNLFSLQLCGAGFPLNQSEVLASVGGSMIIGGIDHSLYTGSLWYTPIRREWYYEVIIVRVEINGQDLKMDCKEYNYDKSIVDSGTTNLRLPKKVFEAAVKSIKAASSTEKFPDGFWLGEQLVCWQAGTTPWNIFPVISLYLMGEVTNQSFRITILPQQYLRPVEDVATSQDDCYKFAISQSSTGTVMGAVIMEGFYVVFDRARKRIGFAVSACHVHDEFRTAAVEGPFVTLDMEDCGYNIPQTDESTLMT
Chain of hERG channel (Q12809 whole entry): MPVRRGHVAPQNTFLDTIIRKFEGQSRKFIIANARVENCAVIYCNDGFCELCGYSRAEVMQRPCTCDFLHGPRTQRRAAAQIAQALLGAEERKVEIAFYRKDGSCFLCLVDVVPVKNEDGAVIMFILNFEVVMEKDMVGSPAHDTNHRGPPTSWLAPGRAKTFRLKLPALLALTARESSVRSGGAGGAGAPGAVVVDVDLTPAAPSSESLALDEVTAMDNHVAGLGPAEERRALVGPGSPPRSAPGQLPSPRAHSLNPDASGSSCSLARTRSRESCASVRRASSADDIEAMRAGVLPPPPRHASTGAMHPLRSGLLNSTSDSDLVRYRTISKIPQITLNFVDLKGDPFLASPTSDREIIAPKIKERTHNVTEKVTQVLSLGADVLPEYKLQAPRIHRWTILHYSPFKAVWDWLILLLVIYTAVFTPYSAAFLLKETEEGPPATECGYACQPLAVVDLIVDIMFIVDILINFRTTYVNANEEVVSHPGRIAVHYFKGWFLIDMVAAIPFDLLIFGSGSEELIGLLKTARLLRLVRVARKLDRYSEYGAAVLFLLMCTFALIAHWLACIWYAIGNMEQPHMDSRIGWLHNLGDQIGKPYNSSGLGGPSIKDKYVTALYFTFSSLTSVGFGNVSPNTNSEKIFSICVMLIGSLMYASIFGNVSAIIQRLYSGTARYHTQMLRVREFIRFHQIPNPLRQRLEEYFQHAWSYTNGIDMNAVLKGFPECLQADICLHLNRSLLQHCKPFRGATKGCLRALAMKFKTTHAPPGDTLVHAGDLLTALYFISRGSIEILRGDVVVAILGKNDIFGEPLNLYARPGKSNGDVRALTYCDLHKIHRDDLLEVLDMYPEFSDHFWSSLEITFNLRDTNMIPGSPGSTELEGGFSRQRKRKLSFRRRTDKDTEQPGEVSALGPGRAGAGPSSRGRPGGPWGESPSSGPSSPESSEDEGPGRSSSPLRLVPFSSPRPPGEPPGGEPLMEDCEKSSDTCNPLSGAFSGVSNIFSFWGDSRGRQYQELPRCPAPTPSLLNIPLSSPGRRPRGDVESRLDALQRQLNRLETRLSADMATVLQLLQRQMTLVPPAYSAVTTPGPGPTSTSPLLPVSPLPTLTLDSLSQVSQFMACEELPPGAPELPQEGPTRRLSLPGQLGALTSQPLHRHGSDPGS
Chain of CYP2D6 (P10635 whole entry): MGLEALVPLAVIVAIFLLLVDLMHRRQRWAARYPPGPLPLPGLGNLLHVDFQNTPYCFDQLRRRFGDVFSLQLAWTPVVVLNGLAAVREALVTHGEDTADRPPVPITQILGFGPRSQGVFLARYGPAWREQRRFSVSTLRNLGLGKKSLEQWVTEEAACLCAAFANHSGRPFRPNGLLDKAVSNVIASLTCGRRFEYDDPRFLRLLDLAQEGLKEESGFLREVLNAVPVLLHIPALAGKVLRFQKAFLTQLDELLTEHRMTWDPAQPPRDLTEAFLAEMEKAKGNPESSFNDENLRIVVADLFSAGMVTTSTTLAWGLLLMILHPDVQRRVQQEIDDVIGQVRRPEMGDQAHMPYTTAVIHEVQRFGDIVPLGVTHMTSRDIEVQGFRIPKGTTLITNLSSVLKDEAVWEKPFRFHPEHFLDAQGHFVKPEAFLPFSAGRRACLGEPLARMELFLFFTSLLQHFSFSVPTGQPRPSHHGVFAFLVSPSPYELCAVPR

For `C[C@H]1C[C@H]2CSC(N)=N[C@@]2(c2nc(NC(=O)c3ccc(OC(F)F)cn3)cs2)CO1` [Comparator 1], in series [1], the “Pgp liability MDR1 Er” value is recorded as 7.1. Besides, in series [2] (setting [9]), the pKa was found to be 7.0. In addition, the “Aniline Structural Alert” value in series [3] was “No”.

For the molecule `C[C@H]1C[C@H]2CSC(N)=N[C@@]2(c2nc(NC(=O)c3ccc(OC(F)F)cn3)ccc2F)CO1` [Comparator 2], the IC50 in series [4] (setting [10]) was 43 nM; in series [5] (read-out: CYP2D6 IC50), less than 30 nM. In series [6], the “HLM CLint” value is 22.9 mL/min/kg^. In addition, the “Pgp liability MDR1 Er” value in series [1] is 14.2. Moreover, the pKa in series [2] and in series [2] (setting [9]) was 8.7 throughout. In series [3], the “Aniline Structural Alert” value is listed as “No”.

As for `C[C@H]1C[C@H]2CSC(N)=N[C@@]2(c2nc(NC(=O)c3ccc(OC(F)F)cn3)ccc2F)CO1` [Comparator 3, reference compound], the IC50 in series [4] (setting [10]) stood at 3 nM; in series [7] it was 400 nM. Besides, in series [6], the “HLM CLint” value worked out at 19.8 mL/min/kg^. Besides, the “Pgp liability MDR1 Er” value in series [1] amounted to 5.1. This molecule yielded a pKa in series [2] (setting [9]) of 8.3. Besides, the “Aniline Structural Alert” value in series [3] was “Yes”.

As for `NC1=N[C@@]2(c3cc(NC(=O)c4ccc(OC(F)F)cn4)ccc3F)COCC[C@H]2CS1` [Comparator 4, reference compound], the IC50 in series [4] (setting [10]) is 9 nM; in series [8], less than 1 nM; in series [5] (microsomes), less than 100 nM; in series [7], 500 nM. In series [6], the “HLM CLint” value is listed as 8.3 mL/min/kg. Moreover, the “Pgp liability MDR1 Er” value in series [1] turned out to be 6.8. In series [2] (setting [9]), this molecule registered a pKa of 8.2. Also, the “Aniline Structural Alert” value in series [3] is given as “Yes”.

For the molecule `CC#CCOc1ccc(C(=O)Nc2csc([C@]34CO[C@@H](C)C[C@H]3CSC(N)=N4)n2)nc1` [Example 94, N-{2-[(4aR,6S,8aR)-2-amino-6-methyl-4,4a,5,6-tetrahydropyrano[3,4-d][1,3]thiazin-8a(8H)-yl]-1,3-thiazol-4-yl}-5-(but-2-yn-1-yloxy)pyridine-2-carboxamide], the IC50 in series [4] (setting [11]) was determined as 18 nM.

`C[C@H]1C[C@H]2CSC(N)=N[C@@]2(c2nc(NC(=O)c3nc(C(F)F)co3)cs2)CO1` [Example 95, N-{2-[(4aR,6S,8aR)-2-amino-6-methyl-4,4a,5,6-tetrahydropyrano[3,4-d][1,3]thiazin-8a(8H)-yl]-1,3-thiazol-4-yl}-4-(difluoromethyl)-1,3-oxazole-2-carboxamide]: the IC50 in series [4] (setting [11]) is 75 nM.

In the case of `Cc1cn(C(F)F)nc1C(=O)Nc1csc([C@]23CO[C@@H](C)C[C@H]2CSC(N)=N3)n1` [Example 96, N-{2-[(4aR,6S,8aR)-2-amino-6-methyl-4,4a,5,6-tetrahydropyrano[3,4-d][1,3]thiazin-8a(8H)-yl]-1,3-thiazol-4-yl}-1-(difluoromethyl)-4-methyl-1H-pyrazole-3-carboxamide], in series [4] (setting [11]), the IC50 was determined as 2 nM.

In the case of `C[C@H]1C[C@H]2CSC(N)=N[C@@]2(c2nc(NC(=O)c3ncc(OC(F)F)cn3)cs2)CO1` [Example 97, N-{2-[(4aR,6S,8aR)-2-amino-6-methyl-4,4a,5,6-tetrahydropyrano[3,4-d][1,3]thiazin-8a(8H)-yl]-1,3-thiazol-4-yl}-5-(difluoromethoxy)pyrimidine-2-carboxamide], the IC50 in series [4] (setting [11]) came to 177 nM.

Turning to `Cc1nc(OC(F)F)cnc1C(=O)Nc1csc([C@]23CO[C@@H](C)C[C@H]2CSC(N)=N3)n1` [Example 98, N-{2-[(4aR,6S,8aR)-2-amino-6-methyl-4,4a,5,6-tetrahydropyrano[3,4-d][1,3]thiazin-8a(8H)-yl]-1,3-thiazol-4-yl}-5-(difluoromethoxy)-3-methylpyrazine-2-carboxamide], in series [4] (setting [11]), the IC50 came to 33 nM.

As to `C[C@H]1C[C@H]2CSC(N)=N[C@@]2(c2nc(NC(=O)c3ncc(OC(F)F)cc3Cl)cs2)CO1` [Example 99, N-{2-[(4aR,6S,8aR)-2-amino-6-methyl-4,4a,5,6-tetrahydropyrano[3,4-d][1,3]thiazin-8a(8H)-yl]-1,3-thiazol-4-yl}-3-chloro-5-(difluoromethoxy)pyridine-2-carboxamide], in series [4] (setting [11]), the IC50 was 25 nM.

Regarding `COCC(F)(F)c1cnc(C(=O)Nc2csc([C@]34CO[C@@H](C)C[C@H]3CSC(N)=N4)n2)cn1` [Example 100, N-{2-[(4aR,6S,8aR)-2-amino-6-methyl-4,4a,5,6-tetrahydropyrano[3,4-d][1,3]thiazin-8a(8H)-yl]-1,3-thiazol-4-yl}-5-(1,1-difluoro-2-methoxyethyl)pyrazine-2-carboxamide], the IC50 in series [4] (setting [11]) came out at 220 nM.

For `C[C@H]1C[C@H]2CSC(N)=N[C@@]2(c2nc(NC(=O)c3ccc(OCC#N)cn3)cs2)CO1` [Example 101, N-{2-[(4aR,6S,8aR)-2-amino-6-methyl-4,4a,5,6-tetrahydropyrano[3,4-d][1,3]thiazin-8a(8H)-yl]-1,3-thiazol-4-yl}-5-(cyanomethoxy)pyridine-2-carboxamide], in series [4] (setting [11]), the half-inhibitory concentration (IC50) stood at 447 nM.

As for `Cc1oc(CF)nc1C(=O)Nc1csc([C@]23CO[C@@H](C)C[C@H]2CSC(N)=N3)n1` [Example 102, N-{2-[(4aR,6S,8aR)-2-amino-6-methyl-4,4a,5,6-tetrahydropyrano[3,4-d][1,3]thiazin-8a(8H)-yl]-1,3-thiazol-4-yl}-2-(fluoromethyl)-5-methyl-1,3-oxazole-4-carboxamide], in series [4] (setting [11]), the IC50 stood at 12 nM.

Regarding `COCC(F)(F)c1ccc(C(=O)Nc2csc([C@]34CO[C@@H](C)C[C@H]3CSC(N)=N4)n2)nc1` [Example 103, N-{2-[(4aR,6S,8aR)-2-amino-6-methyl-4,4a,5,6-tetrahydropyrano[3,4-d][1,3]thiazin-8a(8H)-yl]-1,3-thiazol-4-yl}-5-(1,1-difluoro-2-methoxyethyl)pyridine-2-carboxamide], the IC50 in series [4] (setting [11]) was 282 nM.

On to `CCC(F)(F)Oc1ccc(C(=O)Nc2csc([C@]34CO[C@@H](C)C[C@H]3CSC(N)=N4)n2)nc1` [Example 104, N-{2-[(4aR,6S,8aR)-2-amino-6-methyl-4,4a,5,6-tetrahydropyrano[3,4-d][1,3]thiazin-8a(8H)-yl]-1,3-thiazol-4-yl}-5-(1,1-difluoropropoxy)pyridine-2-carboxamide], for which the half-inhibitory concentration (IC50) in series [4] (setting [11]) is 308 nM.

Take `C[C@H]1C[C@H]2CSC(N)=N[C@@]2(c2nc(NC(=O)C34CC(C3)C4)cs2)CO1` [Example 105, N-{2-[(4aR,6S,8aR)-2-amino-6-methyl-4,4a,5,6-tetrahydropyrano[3,4-d][1,3]thiazin-8a(8H)-yl]-1,3-thiazol-4-yl}bicyclo[1.1.1]pentane-1-carboxamide]: in series [4] (setting [11]), the IC50 was found to be 85 nM.

Take `C[C@H]1C[C@H]2CSC(N)=N[C@@]2(c2nc(NC(=O)C3(C#N)CC3)cs2)CO1` [Example 106, N-{2-[(4aR,6S,8aR)-2-amino-6-methyl-4,4a,5,6-tetrahydropyrano[3,4-d][1,3]thiazin-8a(8H)-yl]-1,3-thiazol-4-yl}-1-cyanocyclopropanecarboxamide]: in series [4] (setting [11]), the half-maximal inhibitory concentration (IC50) came out at 348 nM.

Regarding `C[C@H]1C[C@H]2CSC(N)=N[C@@]2(c2nc(NC(=O)C3CC3)cs2)CO1` [Example 107, N-{2-[(4aR,6S,8aR)-2-amino-6-methyl-4,4a,5,6-tetrahydropyrano[3,4-d][1,3]thiazin-8a(8H)-yl]-1,3-thiazol-4-yl}cyclopropanecarboxamide], in series [4] (setting [11]), the concentration for half-maximal inhibition (IC50) amounted to 475 nM.

For the molecule `C[C@H]1C[C@H]2CSC(N)=N[C@@]2(c2nc(NC(=O)C3(C#N)CCC3)cs2)CO1` [Example 108, N-{2-[(4aR,6S,8aR)-2-amino-6-methyl-4,4a,5,6-tetrahydropyrano[3,4-d][1,3]thiazin-8a(8H)-yl]-1,3-thiazol-4-yl}-1-cyanocyclobutanecarboxamide], the IC50 in series [4] (setting [11]) was 94 nM.

For `C[C@H]1C[C@H]2CSC(N)=N[C@@]2(c2nc(NC(=O)C3(C)CCC3)cs2)CO1` [Example 109, N-{2-[(4aR,6S,8aR)-2-amino-6-methyl-4,4a,5,6-tetrahydropyrano[3,4-d][1,3]thiazin-8a(8H)-yl]-1,3-thiazol-4-yl}-1-methylcyclobutanecarboxamide], the half-inhibitory concentration (IC50) in series [4] (setting [11]) was found to be 461 nM.
